# Measured values: the supplement of paper PMC10307832
# What was measured:
# Assay in all cases: relative viability (nuclei count vs DMSO), 5 days (fraction); higher = more cells survive
# MK-2206 + Foretinib = compound: NC1(c2ccc(-c3nc4ccn5c(=O)[nH]nc5c4cc3-c3ccccc3)cc2)CCC1 [MK-2206] + COc1cc2c(Oc3ccc(NC(=O)C4(C(=O)Nc5ccc(F)cc5)CC4)cc3F)ccnc2cc1OCCCN1CCOCC1 [Foretinib] (partner 0.25 µM)
# Summary of the method: (§1)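 After 5 days of treatment, lung cancer cells in 1536-well plates were fixed and stained in a single step (final 0.05% Triton X-100, 1% formaldehyde, 1 ug/ml Hoechst) and their nuclei counted on 4× images. Treatment had been applied by pin tool the day after seeding as one drug alone or as a fixed anchor-drug dose with five library-drug doses (not always all listed) in √10 steps. Relative viability is the nuclei count of treated wells divided by that of vehicle wells, and values are medians of duplicate plates.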
# Pictilisib + Dasatinib = compound: CS(=O)(=O)N1CCN(Cc2cc3nc(-c4cccc5[nH]ncc45)nc(N4CCOCC4)c3s2)CC1 [Pictilisib] + Cc1nc(Nc2ncc(C(=O)Nc3c(C)cccc3Cl)s2)cc(N2CCN(CCO)CC2)n1 [Dasatinib] (partner 0.075 µM)
# Summary of the method: as §1
# MK-2206 + Vorinostat = compound: NC1(c2ccc(-c3nc4ccn5c(=O)[nH]nc5c4cc3-c3ccccc3)cc2)CCC1 [MK-2206] + O=C(CCCCCCC(=O)Nc1ccccc1)NO [Vorinostat] (partner 1 µM)
# Summary of the method: as §1
# MK-2206 + Tozasertib = compound: NC1(c2ccc(-c3nc4ccn5c(=O)[nH]nc5c4cc3-c3ccccc3)cc2)CCC1 [MK-2206] + Cc1cc(Nc2cc(N3CCN(C)CC3)nc(Sc3ccc(NC(=O)C4CC4)cc3)n2)n[nH]1 [Tozasertib] (partner 0.1 µM)
# Summary of the method: as §1
# Pictilisib + Alpelisib = compound: CS(=O)(=O)N1CCN(Cc2cc3nc(-c4cccc5[nH]ncc45)nc(N4CCOCC4)c3s2)CC1 [Pictilisib] + Cc1nc(NC(=O)N2CCC[C@H]2C(N)=O)sc1-c1ccnc(C(C)(C)C(F)(F)F)c1 [Alpelisib] (partner 2 µM)
# Summary of the method: as §1
Cell Line,relative viability (MK-2206 + Foretinib; first compound 0.01 µM),relative viability (MK-2206 + Foretinib; first compound 0.03162 µM),relative viability (MK-2206 + Foretinib; first compound 0.3162 µM),relative viability (MK-2206 + Foretinib; first compound 1 µM),relative viability (Pictilisib + Dasatinib; first compound 0.02 µM),relative viability (Pictilisib + Dasatinib; first compound 0.06325 µM),relative viability (Pictilisib + Dasatinib; first compound 0.6325 µM),relative viability (Pictilisib + Dasatinib; first compound 2 µM),relative viability (MK-2206 + Vorinostat; first compound 0.01 µM),relative viability (MK-2206 + Vorinostat; first compound 0.03162 µM),relative viability (MK-2206 + Vorinostat; first compound 0.3162 µM),relative viability (MK-2206 + Vorinostat; first compound 1 µM),relative viability (MK-2206 + Tozasertib; first compound 0.01 µM),relative viability (MK-2206 + Tozasertib; first compound 0.03162 µM),relative viability (MK-2206 + Tozasertib; first compound 0.3162 µM),relative viability (MK-2206 + Tozasertib; first compound 1 µM),relative viability (Pictilisib + Alpelisib; first compound 0.02 µM),relative viability (Pictilisib + Alpelisib; first compound 0.06325 µM),relative viability (Pictilisib + Alpelisib; first compound 0.6325 µM),relative viability (Pictilisib + Alpelisib; first compound 2 µM)
LXF-289,0.932,0.941,1.01,1.05,0.189,0.212,0.104,0.0692,0.736,0.797,0.867,0.78,0.209,0.201,0.238,0.172,1.08,1.07,1.06,0.822
NCI-H1792,,,,,0.811,0.795,0.417,0.228,,,,,,,,,0.72,0.715,0.657,0.36
LU99A,0.805,0.774,0.847,0.816,0.514,0.567,0.281,0.204,0.456,0.529,0.473,0.49,0.302,0.281,0.271,0.21,0.461,0.61,0.413,0.287
SW 1573,0.833,1.28,0.755,0.956,0.485,0.524,0.288,0.161,0.665,0.94,0.449,0.6,0.242,0.152,0.175,0.127,0.891,0.766,0.658,0.532
A549,0.752,0.817,0.914,0.907,,,,,,,,,,,,,0.785,0.627,0.619,0.345
ChaGo-K-1,0.969,0.974,0.922,0.93,0.628,0.682,0.517,0.384,0.754,0.856,0.763,0.702,0.236,0.268,0.2,0.228,,,,
NCI-H2342,0.985,1.13,1,0.901,0.263,0.305,0.289,0.267,0.841,0.802,0.821,0.733,0.608,0.535,0.452,0.402,,,,
NCI-H1648,,,,,,,,,0.475,0.422,0.445,0.432,0.508,0.689,0.657,0.504,,,,
NCI-H1563,0.882,0.988,0.832,0.769,0.431,0.39,0.356,0.316,,,,,,,,,1.06,0.851,0.724,0.591
NCI-H522,,,,,0.75,0.984,0.79,0.664,1.07,1.02,0.828,0.836,0.593,0.518,0.62,0.513,,,,
NCI-H1623,0.844,0.958,0.795,0.832,0.55,0.487,0.472,0.251,,,,,0.458,0.394,0.456,0.44,,,,
NCI-H1299,1.15,1.06,1.15,1.16,,,,,,,,,,,,,1.06,1.07,1.08,1.04
Calu-6,0.939,0.99,0.837,0.937,,,,,,,,,,,,,1.01,0.967,0.909,0.833
